Like-named read-outs stand apart in the source and are kept apart here. Peptide text beside a SMILES is read from it. * marks the point of attachment. Cbz = O=C(OCc1ccccc1)*; CH2F = FC*
Assays:
PKR−/− BMDMs = type: cell-based, mouse
Description: A. Bone marrow derived macrophages (BMDMs) from PKR+/+ and PKR−/− mice were left untreated or treated with LPS plus SB202190 or LT (2.5 μg/ml PA+500 ng/ml LF), 15-deoxy-12,14-prostaglandin J2 (5 μM), or doxorubicin (10 μg/ml), as indicated. After 16 hrs, the cells were stained with Hoechst 33258 (blue) or annexin V-Alexa568 (red). […] (FIG. 9a) B. Bone marrow derived macrophages (BMDMs) from PKR+/+ or PKR−/− mice were incubated with LPS for various time periods (in days) and analyzed by TUNEL staining to determine the extent of apoptosis. […] (FIG. 9b)

[1] = test system: bone marrow derived macrophages (BMDMs); type: cell-based, mouse; settings: for apoptotic response of BMDMs: C57BL/6J BMDMs
[2] = test system: J774A.1 macrophage-like cells; assay: Nucleosomal DNA ladder in J774A.1 cells incubated with LPS plus SB202190 and pan-caspase inhibitor; type: cell-based; settings: inhibitor 10, 100, 200 μM, 18 hrs
Description: A. J774A.1 macrophage-like cells were incubated with LPS plus SB202190 (10 μM) whereas NIH3T3 fibroblasts were incubated with mouse TNF-α (10 ng/ml) plus cycloheximide (25 μg/ml). At the indicated time points cell lysates were prepared and analyzed by immunoblotting with antibodies specific to caspase-8. (FIG. 8a) B. J774A.1 macrophage-like cells were incubated with LPS plus SB202190 (10 μm), whereas NIH3T3 fibroblasts were incubated with mouse TNF-α (10 ng/ml) plus cycloheximide (25 μg/ml). At the indicated time points cell lysates were prepared and analyzed by immunoblotting with antibodies specific to caspase-3. (FIG. 8b) C. J774A.1 macrophage-like cells were incubated with or without LPS in the absence or presence of SB202190. When indicated, increasing concentrations (10, 100, and 200 μM) of a pan-caspase inhibitor (ZVAD-FMK) were added. After 18 hrs, genomic DNA was isolated and analyzed by agarose gel electrophoresis and EtBr staining for appearance of nucleosomal ladders indicative of apoptosis. (FIG. 8c)

[3] = test system: IKKβ-deficient macrophages; assay: TUNEL apoptosis of IKKβ-deficient macrophages treated with TLR agonists or TNF-α; type: cell-based, mouse; settings: without p38 inhibition, 12 hrs
Description: Bone marrow derived macrophages from Ikkβ F/F (IKKβ+/+) or MX1Cre-Ikkβ F/F (IKKβ−/−) mice were untreated or treated with LPS (100 ng/ml), LTA from B. subtilis (10 μg/ml), poly(IC) (10 μg/ml), SBLP (Pam3CSK4, 1 μg/ml), CpG-containing DNA (1 μM), and mouse TNF-α (10 ng/ml). After 12 hrs, apoptotic cell death was quantitated by TUNEL staining. Inset, macrophage lysates were analyzed by immunoblotting with antibodies specific to IKKβ and p38. (FIG. 2e)

PKR = target: T1, PKR (Mus musculus, UniProt Q03963); assay: PKR activation by autophosphorylation and eIF2α phosphorylation in macrophages; type: cell-based; settings: for PKR activation (autophosphorylation, eIF2α phosphorylation): wt macrophages
T1 construct: endogenous in cells; host or cells: wild-type mouse bone marrow derived macrophages (BMDMs)
T1 sequence (Q03963 1-515): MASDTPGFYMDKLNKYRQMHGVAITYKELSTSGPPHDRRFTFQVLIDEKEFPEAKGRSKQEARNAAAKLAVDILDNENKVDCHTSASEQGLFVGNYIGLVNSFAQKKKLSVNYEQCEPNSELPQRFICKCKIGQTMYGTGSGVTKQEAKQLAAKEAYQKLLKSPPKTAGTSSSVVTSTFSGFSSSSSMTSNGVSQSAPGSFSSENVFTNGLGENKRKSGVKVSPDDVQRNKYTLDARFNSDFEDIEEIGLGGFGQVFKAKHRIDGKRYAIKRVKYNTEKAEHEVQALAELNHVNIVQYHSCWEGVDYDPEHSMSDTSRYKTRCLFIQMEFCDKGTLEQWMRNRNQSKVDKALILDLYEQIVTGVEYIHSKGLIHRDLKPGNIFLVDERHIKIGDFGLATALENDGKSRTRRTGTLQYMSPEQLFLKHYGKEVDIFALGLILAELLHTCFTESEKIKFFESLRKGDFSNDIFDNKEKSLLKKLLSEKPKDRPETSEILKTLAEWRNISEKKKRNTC
Description: Whole cell extracts were prepared and PKR activity was measured by autophosphorylation (Gusella et al. J Immunol 154, 345-54, 1995) after immunoprecipitation with anti-PKR antibody (Santa Cruz).
Phosphorylation of eIF2α was detected by immunoblotting with antibody against phosphorylated eIF2α (Biosource, Camarillo, Calif.). The same blot was stripped and probed with antibody against total eIF2αIKK and MAPK activation were measured as described (Park et al. Science 297, 2048-51, 2002). Phosphorylation of STAT1 (Medzhitov et al. Nature 388, 394-7 (1997) was monitored by immunoblotting with anti-phospho-STAT1 antibody (Cell Signaling, Beverly, Mass.).
Bone marrow derived macrophages (BMDMs) (wt) were stimulated with LPS (100 ng/ml) or poly(IC) (10 μg/ml) or left unstimulated. At the indicated time points cells were lysed and PKR activation was monitored by autophosphorylation. Gel loading was controlled by immunoblotting for PKR. The same lysates were monitored for eIF-2α phosphorylation by immunoblotting with antibodies specific for phosphorylated eIF-2a (P-eIF-2α) and total eIF-2α (FIG. 3a)

A1/Bfl1 = assay: Immunoblotting of A1/Bfl1 and cIAP-1 after poly(IC) transfection and LPS; type: cell-based, mouse; settings: wt BMDMs, poly(IC) transfection followed by LPS
Description: PKR+/+ and PKR−/− BMDMs were transfected with or without poly(IC) using Lipofectamine (Diebold et al. Nature 424, 324-328, 2003). After 6 hrs, LPS was added and the levels of A1/Bfl1 and cIAP-1 were examined by immunoblotting. (FIG. 5b)

[4] = test system: bone marrow derived macrophages (BMDMs); type: cell-based, mouse; settings: BMDMs preincubated with poly(IC) 6 hrs before infection
S. typhimurium = assay: Systemic S. typhimurium infection of mice pretreated with poly(IC); type: in vivo
Description: Mice (7-10 weeks old) were injected i.p. with either PBS or 200-300 μg poly(IC) in PBS. After 20 hrs, mice were injected i.p. with 10^6 S. typhiumurium 14028 in PBS. Mice that were still alive were sacrificed after 24 hrs and their spleens removed. For certain experiments, tissue was homogenized in PBS+0.1% Triton X-100. To determine bacterial counts, tissue homogenates were diluted in PBS and plated on LB agar and colonies were counted after overnight incubation at 37° C.
B. Mice (wt and PKR−/−) were Injected i.p. with PBS or 200-300 μg Poly(IC) in PBS
After 20 hrs the mice were injected i.p. with 10^6 S. typhimurium (14028) bacteria suspended in PBS. After 24 hrs, survival was monitored and mice that were still alive were sacrificed and the numbers of live bacteria within their spleens determined. * represents p=0.007. (FIG. 7b)
C. Mice were Treated as Above and Parts of their Spleens Analyzed for the Presence Of Apoptotic Cells by TUNEL Staining
Photograph was taken from the splenic red pulp where macrophages reside. (FIG. 7c)

[5] = with p38 inhibition (SB202190 10 μM), 18 hrs

`CCCCCC=CC=C1C(=O)C=C[C@@H]1CC=CCCCC(=O)O` [15-deoxy-12,14-prostaglandin J2] was tested, and the “apoptosis of PKR−/− BMDMs” value (PKR−/− BMDMs) was “still underwent apoptosis”.

`Oc1ccc(-c2nc(-c3ccncc3)c(-c3ccc(F)cc3)[nH]2)cc1` [SB202190] was tested, and the “macrophage apoptosis induced by heat-inactivated B. anthracis” value ([1]; in the presence of SB202190 (10 μM), 18 hrs, TUNEL) was “extensive macrophage apoptosis”.

With `C[C@@H]1C[C@@H]([C@H](O)CC2CC(=O)NC(=O)C2)C(=O)[C@@H](C)C1` [cycloheximide] the “apoptosis on mere incubation” value ([1]; wt or PKR−/− BMDMs, cycloheximide 10 μg/ml) was “triggered apoptosis”.

For `COc1cccc2c1C(=O)c1c(O)c3c(c(O)c1C2=O)C[C@@](O)(C(=O)CO)C[C@@H]3O[C@H]1C[C@H](N)[C@H](O)[C@H](C)O1` [doxorubicin], the “apoptosis of PKR−/− BMDMs” value (PKR−/− BMDMs; PKR−/− BMDMs, 16 hrs, annexin V) was “still underwent apoptosis”.

In the case of `COC(=O)C[C@H](NC(=O)[C@H](C)NC(=O)[C@@H](NC(=O)OCc1ccccc1)C(C)C)C(=O)CF` [pan-caspase inhibitor, ZVAD-FMK] (Cbz-Val-Ala-Asp(OMe)-CH2F), the “effect on LPS-induced macrophage apoptosis” value [2] is reported as “apoptosis was inhibited”.

For Pam3CSK4 [SBLP], the “apoptotic response of BMDMs” value [1, 5] was “Little apoptosis”.

TNF-α was tested, and the “apoptosis of IKKβ-deficient macrophages” value [3] was “underwent apoptosis”.

For lipopolysaccharide [LPS], the “apoptosis of IKKβ-deficient macrophages” value [3] was “underwent apoptosis”, the “PKR activation (autophosphorylation, eIF2α phosphorylation)” value (PKR) was “rapidly activated” and the “apoptotic response of BMDMs” value [1, 5] was “strong apoptotic response”. For the same compound, the “apoptosis on prolonged incubation” value ([1]; wt BMDMs, without p38 inhibition, prolonged incubation (days)) was “resulted in apoptosis”.

With lipoteichoiec acid [LTA] the “apoptosis of IKKβ-deficient macrophages” value [3] was “underwent apoptosis”.

With poly(IC) the “apoptosis of IKKβ-deficient macrophages” value [3] was “more susceptible”, the “accumulation of A1/Bfl1” value (A1/Bfl1) was “inhibited the accumulation” and the “effect on apoptosis in response to live S. typhimurium or Y. pseudotuberculosis” value [4] was “potentiated apoptosis”. For the same compound, the “enhancement of bacterial load, apoptosis or mortality” value (S. typhimurium; PKR−/− mice, poly(IC) pretreatment) was “little enhancement”, the “number of apoptotic cells in the red pulp of the spleens” value (S. typhimurium; S. typhimurium infected wt mice, poly(IC) pretreatment) was “increased the number of apoptotic cells” and the “increase in number of live bacteria recovered from the spleen” value (S. typhimurium; wt mice, 200-300 μg poly(IC) i.p. before S. typhimurium, 24 hrs) was 3.5 fold. For the same compound, the “mortality caused by S. typhimurium infection” value (S. typhimurium; wt mice, poly(IC) pretreatment) was “increased the mortality”, the “PKR activity after transfection versus simple addition to culture medium” value (PKR; poly(IC) introduced by transfection (lipofectamine)) was “higher levels of PKR activity” and the “PKR activation (autophosphorylation, eIF2α phosphorylation)” value (PKR) was “rapidly activated”. The “apoptotic response of BMDMs” value ([1]; without p38 inhibition, 18 hrs) was “weak apoptotic response”, the “apoptosis after transfection versus simple addition to culture medium” value ([1]; poly(IC) transfection, LPS added 6 hrs later, 18 hrs) was “higher level of apoptosis” and the “sensitization of BMDMs to LPS-induced apoptosis” value ([1]; with LPS, without SB202190) was “renders BMDMs susceptible to LPS-induced apoptosis”.
